Measured values reported in US10813911B2, “Methods of treating and/or preventing chronic obstructive pulmonary disease” (UNIVERSITE DE BORDEAUX, priority 2015, dated 2020).

Assays:
Type in all cases: cell-based, human
[1] = tested on: fibrocytes obtained from normal subjects; assay: plasma-induced fibrocyte migration, modified Boyden chamber assay
Method: (§1) Purification of nonadherent non-T (NANT) cells was performed. Briefly, peripheral blood mononuclear cells (PBMC) were separated from whole blood by Ficoll-Hypaque density gradient centrifugation. After the first centrifugation at 150 g for 15 min, the top plasma layer was harvested and kept at −80° C. for further analysis. Mononuclear cells at the interface were harvested, washed once with 1×PBS. Erythrocyte lysis was performed by adding 20 ml of hypotonic 0.2% NaCl solution during 30s, followed by adding 20 ml of 1.6% NaCl to end with an isotonic solution. Mononuclear cells were again washed with 1×PBS, resuspended in Dulbecco's modified Eagle medium (DMEM), 4.5 g/l glucose, L-glutamine, supplemented with 20% fetal bovine serum (FBS), penicillin/streptomycin and MEM non essential amino acid and incubated 1 h at 37° C. The non-adherent mononuclear cell fraction was taken and washed in cold 1×PBS 0.5% BSA, 2 mM EDTA. T-cells were further depleted with anti-CD3 monoclonal antibody (Miltenyi Biotech). At least 0.2×10^6 nonadherent non-T (NANT) cells were distributed in each FACS tube and fixed overnight with Cytofix/Cytoperm (eBioscience).
(§2) Fibrocyte migration was assessed using a modified Boyden chamber assay. The transwell inserts (pore size 8 μm) and the wells were coated for 1 h at room temperature with poly-lysine-ethylene glycol (PEG-PLL, Susos) to prevent cell adhesion. The inserts and the wells were rinsed with PBS. 0,3.10^6 nonadherent non-T (NANT) cells resuspended in 0.2 ml […] DMEM, 4.5 g/l glucose, L-glutamine, supplemented with ITS, penicillin/streptomycin and MEM non essential amino acid were added to the upper compartment of each well. When indicated, NANT cells were pretreated for 1 h at 37° by 25 μg/ml plerixafor (Sigma-Aldrich) or 10 μM SB 328437 (R&D Systems) before being added to the upper compartment. Recombinant human CXCL12 (25 ng/ml to 200 ng/ml; R&D Systems), recombinant human CCL11 (25 ng/ml to 200 ng/ml; R&D Systems) or plasma (50% dilution) extracted from blood coming from COPD V1 patient or control subject was added to the bottom compartment of each well. After about 12 h, the content of bottom compartment was removed to assess fibrocyte migration by flow cytometry using double labeling CD45-collagen I. To obtain absolute values of migratory cells, flow cytometric counts for each condition were obtained during a constant predetermined time period (1 min). The fraction of migratory fibrocytes was defined by the ratio between the number CD45+coll I+ cells counted in the bottom chamber divided by the number of CD45+coll I+ cells added in the upper compartment. These values were normalized to the fraction of migratory fibrocytes obtained in the basal condition (medium only).

[2] = tested on: fibrocytes obtained from exacerbating COPD patients; assay: as above
Method: as §1, §2

fibrocytes = assay: fibrocyte migration in response to recombinant chemokine (CXCL12, CCL11), modified Boyden chamber assay
Method: as §1
Fibrocyte migration was assessed using a modified Boyden chamber assay. The transwell inserts (pore size 8 μm) and the wells were coated for 1 h at room temperature with poly-lysine-ethylene glycol (PEG-PLL, Susos) to prevent cell adhesion. The inserts and the wells were rinsed with PBS. 0,3.10^6 nonadherent non-T (NANT) cells resuspended in 0.2 ml […] DMEM, 4.5 g/l glucose, L-glutamine, supplemented with ITS, penicillin/streptomycin and MEM non essential amino acid were added to the upper compartment of each well. […] The fraction of migratory fibrocytes was defined by the ratio between the number CD45+coll I+ cells counted in the bottom chamber divided by the number of CD45+coll I+ cells added in the upper compartment. […]

COC(=O)[C@H](Cc1ccc([N+](=O)[O-])cc1)NC(=O)c1ccc2ccccc2c1 [SB 328437, (S)-methyl-2-naphthoylamino-3-(4-nitrophenyl) propionate]
plasma-induced migration of fibrocytes ([1]; fibrocytes from control subjects, plasma of exacerbating COPD patients, cells pretreated 1 h with 10 μM SB 328437, Figure E3A (FIG. 8A)): not affected
plasma-induced migration of fibrocytes ([2]; plasma of exacerbating COPD patients, cells pretreated 1 h with 10 μM SB 328437, Figure E3A (FIG. 8A)): not affected

c1cc(CN2CCCNCCNCCCNCC2)ccc1CN1CCCNCCNCCCNCC1 [Plerixafor]
fibrocyte migration in response to CXCL12 in presence of antagonist (fibrocytes; CXCL12 alpha-induced migration, cells pretreated 1 h with 25 μg/ml plerixafor, FIG. 5D): completely abolished
plasma-induced migration of fibrocytes ([1]; fibrocytes from normal (control) subjects, plasma of exacerbating COPD patients (50% dilution), cells pretreated 1 h with 25 μg/ml plerixafor, about 12 h, FIG. 5A): no significant reduction
plasma-induced recruitment of fibrocytes ([2]; plasma of exacerbating COPD patients (50% dilution), cells pretreated 1 h with 25 μg/ml plerixafor, about 12 h, FIG. 5A): significant reduction

CXCL12 alpha: recombinant human CXCL12 (R&D Systems), chemokine ligand of CXCR4
migration of fibrocytes from exacerbating COPD patient compared to fibrocytes from control subjects (fibrocytes; 100 ng/ml chemokine, FIG. 5C): significantly higher migration
migratory response of fibrocytes to increasing concentrations of chemokine (fibrocytes; recombinant human chemokine 25 ng/ml to 200 ng/ml in bottom compartment, about 12 h, FIG. 5C, Figure E3C): induced a significant fibrocytes migration in a dose-dependent manner
